Results from paper PMC7230911, “Meroterpenoids from the Brown Alga Cystoseira usneoides as Potential Anti-Inflammatory and Lung Anticancer Agents” (Marine Drugs, 2020).

Tests used:
iNOS = iNOS protein expression in LPS-stimulated THP-1 macrophages (western blot); assay type: cell-based, human; conditions: 8 μg/mL, LPS-stimulated THP-1 cells
Description: COX-2 is the key enzyme regulating the production of prostaglandins, which are the central mediators of inflammation. On the other hand, iNOS enzyme represents an important molecular target closely involved in inflammatory responses. Thus, the effect of the AMTs 1–8 on LPS-induced COX-2 and iNOS protein expression was investigated by western blot analysis.
Figure 3 Effect of meroterpenoids 1–8 on LPS-induced COX-2 and iNOS protein expression in THP-1 macrophages. Cells were pretreated for 1 h with the compounds (1, 2, 3, 4, 7, and 8 at 8 μg/mL; 5 and 6 at 4 μg/mL) and then stimulated with LPS (1 μg/mL). Cytosolic lysates from 24 h-stimulated cells were separated on 10% SDS-PAGE. COX-2, iNOS, and β-actin were detected by western blot analysis. Data are expressed as means ± SE from three independent experiments. Statistical significance is indicated (+++ p < 0.001 and ++ p < 0.01, vs. Control, respectively; * p < 0.05, and ** p < 0.01 vs. Control + LPS).
Western blotting was used to measure the protein levels of COX-2 and iNOS [65]. […] Proteins concentration in cell lysates was determined by Bio-Rad Protein Assay, based on the method of Bradford (BioRad, Richmond CA, USA). […] The protein band densities were quantified using a Scientific Imaging Systems (Biophotonics ImageJ Analysis Software, National Institute of Mental Health, Bethesda, MD, USA).

colitis = system: colitis; set-up: method as in PMID 27527191; conditions: down-regulating TNF-α, IL-1ß, IL-10, suppressing COX-2 and iNOS expression in mouse colon tissue; cited from earlier work

## COc1c(C)cc(O)cc1C/C=C(\C)CC(=O)/C=C(\C)CCCC(C)(O)C(=O)/C=C/C(C)(C)O (centres unmarked) [Compound 2, 11-hydroxy-1’-O-methylamentadione]
iNOS
  effect on iNOS (in words): significantly inhibited
colitis
  in vivo effect in colitis (in words): intestinal anti-inflammatory activity in colitis
